In patent US20210269661A1, “INK COMPOSITIONS” (HEWLETT-PACKARD DEVELOPMENT COMPANY, L.P., priority 2018, published 2021):

Test: Partition coefficient of organic co-solvents (log P 1-octanol/water)
Settings: not given
Excerpt: The hydrophilicity of the organic co-solvent can be quantified as a partition coefficient. As used herein, “partition coefficient” refers to a concentration ratio of a compound in an equilibrium mixture of two immiscible phases, and can be a measure of the difference in solubility of the compound in the two immiscible phases. Formula I provides an equation of quantifying the hydrophilicity of the organic co-solvents of the present disclosure, as follows: […]

SMILES | Partition Coefficient (log P1-octanol/water)
CC1(C)NC(=O)NC1=O [5,5-dimethyl hydantoin] | −0.40 log P1-octanol/water
CCCCCCCCO [Ink 1-octanol, 1-octanol] | 2.34 log P1-octanol/water
O=C1CCCN1CCO [N-(2-hydroxyethyl)-2-pyrrolidinone] | −0.40 log P1-octanol/water
CC1(C)C(=O)N(CCO)C(=O)N1CCO [di-(2-hydroxyethy)-5,5-dimethylhydantoin] | −1.39 log P1-octanol/water
OCCOCCOCCO [triethylene glycol] | −1.00 log P1-octanol/water
O [water] | −0.825 log P1-octanol/water

Same assay, conditions: equilibrium mixture of 1-octanol and water

SMILES | Partition Coefficient (log P1-octanol/water)
O=C1CCCN1 [2-pyrrolidone] | −0.10 log P1-octanol/water
CCC(CO)(CO)CO [ethylhydroxy propanediol] | −0.50 log P1-octanol/water
